Measurements from paper PMC9898036, “VIP152 is a selective CDK9 inhibitor with pre-clinical in vitro and in vivo efficacy in chronic lymphocytic leukemia” (Leukemia, 2022).
Like-named read-outs stand apart in the source and are kept apart here.

What was measured:
DYRK1B = DYRK1B (Homo sapiens, UniProt Q9Y463); assay: KINOMEscan: DYRK1B; type: binding; conditions: 1000 nM, read-out: Percent Control
KIT(D816V) = KIT(D816V) (Homo sapiens, UniProt P10721, D816V); assay: KINOMEscan: KIT(D816V); type: binding; conditions: 1000 nM, read-out: Percent Control
LIMK2 = LIMK2 (Homo sapiens, UniProt P53671); assay: KINOMEscan: LIMK2; type: binding; conditions: 1000 nM, read-out: Percent Control
ANKK1 = ANKK1 (Homo sapiens, UniProt Q8NFD2); assay: KINOMEscan: ANKK1; type: binding; conditions: 1000 nM, read-out: Percent Control
CLK1 = CLK1 (Homo sapiens, UniProt P49759); assay: KINOMEscan: CLK1; type: binding; conditions: 1000 nM, read-out: Percent Control
MARK2 = MARK2 (Homo sapiens, UniProt Q7KZI7); assay: KINOMEscan: MARK2; type: binding; conditions: 1000 nM, read-out: Percent Control
FGR = FGR (Homo sapiens, UniProt P09769); assay: KINOMEscan: FGR; type: binding; conditions: 1000 nM, read-out: Percent Control
Neuropeptide Y Y2 = Neuropeptide Y Y2 (Homo sapiens, UniProt P49146); assay: Eurofins Diversity Panel; type: binding; conditions: hum, Conc. 10 μM
Neuropeptide Y Y2, sequence (P49146 whole entry): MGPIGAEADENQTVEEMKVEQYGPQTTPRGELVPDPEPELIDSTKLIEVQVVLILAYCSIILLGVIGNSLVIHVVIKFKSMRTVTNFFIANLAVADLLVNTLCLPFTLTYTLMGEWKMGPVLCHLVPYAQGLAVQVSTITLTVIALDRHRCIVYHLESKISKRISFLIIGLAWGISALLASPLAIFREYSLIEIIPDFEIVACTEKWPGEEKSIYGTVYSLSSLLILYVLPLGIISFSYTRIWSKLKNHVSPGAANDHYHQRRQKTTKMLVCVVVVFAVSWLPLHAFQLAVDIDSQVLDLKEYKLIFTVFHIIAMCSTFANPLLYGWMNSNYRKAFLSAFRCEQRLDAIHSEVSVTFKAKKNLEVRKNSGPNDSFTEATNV

[1] = test system: HG-3 and MEC-1 cell lines; assay: Western blot of treated CLL cell lines; type: cell-based, human
STK16 = STK16 (Homo sapiens, UniProt O75716); assay: KINOMEscan: STK16; type: binding; conditions: 100 nM, read-out: Percent Control
STK16, sequence (O75716 whole entry): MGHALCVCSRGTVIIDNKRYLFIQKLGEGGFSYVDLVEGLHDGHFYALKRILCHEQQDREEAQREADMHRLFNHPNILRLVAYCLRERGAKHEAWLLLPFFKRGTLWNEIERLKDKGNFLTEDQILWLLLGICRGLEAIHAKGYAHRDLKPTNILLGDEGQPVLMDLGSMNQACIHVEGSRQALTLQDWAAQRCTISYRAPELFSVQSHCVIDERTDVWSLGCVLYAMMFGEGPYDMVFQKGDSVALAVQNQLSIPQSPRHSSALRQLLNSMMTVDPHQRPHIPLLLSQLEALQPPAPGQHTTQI

MAPKAPK2 = MAPKAPK2 (Homo sapiens, UniProt P49137); assay: KINOMEscan: MAPKAPK2; type: binding; conditions: 1000 nM, read-out: Percent Control
MAPKAPK2, sequence (P49137 whole entry): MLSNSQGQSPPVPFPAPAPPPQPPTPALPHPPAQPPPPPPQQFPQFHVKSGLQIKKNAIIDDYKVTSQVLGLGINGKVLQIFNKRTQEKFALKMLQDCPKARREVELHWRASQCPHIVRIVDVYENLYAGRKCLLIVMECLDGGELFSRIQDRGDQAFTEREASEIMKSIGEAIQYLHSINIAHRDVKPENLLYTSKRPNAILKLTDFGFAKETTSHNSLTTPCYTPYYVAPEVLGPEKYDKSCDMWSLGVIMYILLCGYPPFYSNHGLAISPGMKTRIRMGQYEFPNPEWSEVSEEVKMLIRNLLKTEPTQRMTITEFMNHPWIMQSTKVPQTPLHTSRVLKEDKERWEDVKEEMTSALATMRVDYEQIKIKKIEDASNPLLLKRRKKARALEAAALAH

DCAMKL3 = DCAMKL3 (Homo sapiens, UniProt Q9C098); assay: KINOMEscan: DCAMKL3; type: binding; conditions: 1000 nM, read-out: Percent Control
[2] = molecular target: EGFR(L747-S752del, P753S) (Homo sapiens, UniProt P00533, DEL747-752/P753S); assay: KINOMEscan: EGFR(L747-S752del, P753S); type: binding; conditions: 1000 nM, read-out: Percent Control
EGFR(L747-S752del, P753S), sequence (P00533 with tags, fused parts or gaps DEL747-752/P753S limits assumed): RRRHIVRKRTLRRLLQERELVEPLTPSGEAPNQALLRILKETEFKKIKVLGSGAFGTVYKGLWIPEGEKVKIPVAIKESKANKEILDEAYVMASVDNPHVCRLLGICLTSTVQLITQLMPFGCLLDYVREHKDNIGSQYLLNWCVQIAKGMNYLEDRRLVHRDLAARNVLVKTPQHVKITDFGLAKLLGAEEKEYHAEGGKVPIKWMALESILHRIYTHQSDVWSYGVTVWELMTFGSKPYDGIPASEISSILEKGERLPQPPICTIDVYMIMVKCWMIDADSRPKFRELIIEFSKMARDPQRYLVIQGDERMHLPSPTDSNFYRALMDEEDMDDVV

Histamine H2 = Histamine H2 (Homo sapiens, UniProt P25021); assay: Eurofins Diversity Panel; type: binding; conditions: hum, Conc. 10 μM
Histamine H2, sequence (P25021 whole entry): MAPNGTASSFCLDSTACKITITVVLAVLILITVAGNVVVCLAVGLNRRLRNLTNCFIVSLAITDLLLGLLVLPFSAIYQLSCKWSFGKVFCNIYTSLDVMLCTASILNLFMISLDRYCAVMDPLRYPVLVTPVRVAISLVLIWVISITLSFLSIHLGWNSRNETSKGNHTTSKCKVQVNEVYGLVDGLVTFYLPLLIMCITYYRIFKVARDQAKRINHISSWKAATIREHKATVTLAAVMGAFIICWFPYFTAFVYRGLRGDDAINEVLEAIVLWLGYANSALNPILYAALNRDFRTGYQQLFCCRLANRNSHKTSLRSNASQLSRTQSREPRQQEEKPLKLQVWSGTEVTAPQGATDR

ERN1 = ERN1 (Homo sapiens, UniProt O75460); assay: KINOMEscan: ERN1; type: binding; conditions: 1000 nM, read-out: Percent Control
ERN1, sequence (O75460 19-977): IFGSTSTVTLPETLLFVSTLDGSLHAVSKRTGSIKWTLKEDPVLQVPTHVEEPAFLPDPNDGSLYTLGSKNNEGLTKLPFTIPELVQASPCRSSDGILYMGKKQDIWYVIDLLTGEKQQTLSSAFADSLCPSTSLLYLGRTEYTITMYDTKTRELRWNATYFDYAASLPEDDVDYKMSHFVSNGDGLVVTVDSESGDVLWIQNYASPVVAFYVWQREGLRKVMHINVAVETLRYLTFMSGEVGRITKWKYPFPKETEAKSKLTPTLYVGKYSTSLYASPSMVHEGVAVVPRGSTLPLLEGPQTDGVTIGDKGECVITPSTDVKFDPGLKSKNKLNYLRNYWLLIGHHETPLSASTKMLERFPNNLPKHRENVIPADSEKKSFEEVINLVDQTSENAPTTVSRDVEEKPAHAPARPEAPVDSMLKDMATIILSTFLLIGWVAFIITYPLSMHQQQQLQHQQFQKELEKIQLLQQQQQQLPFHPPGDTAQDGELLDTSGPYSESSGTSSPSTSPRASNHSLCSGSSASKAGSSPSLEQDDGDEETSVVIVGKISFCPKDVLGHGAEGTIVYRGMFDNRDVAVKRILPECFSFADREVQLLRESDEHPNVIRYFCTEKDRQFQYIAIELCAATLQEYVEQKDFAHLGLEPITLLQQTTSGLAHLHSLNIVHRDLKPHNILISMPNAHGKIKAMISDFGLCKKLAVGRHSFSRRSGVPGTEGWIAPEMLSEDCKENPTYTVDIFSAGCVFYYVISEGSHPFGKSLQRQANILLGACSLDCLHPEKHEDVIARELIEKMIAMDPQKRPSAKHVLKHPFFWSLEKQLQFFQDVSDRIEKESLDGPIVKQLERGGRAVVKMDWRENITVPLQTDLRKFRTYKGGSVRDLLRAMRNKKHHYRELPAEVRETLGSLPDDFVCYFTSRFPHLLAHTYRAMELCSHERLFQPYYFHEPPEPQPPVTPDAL

BRAF(V600E) = BRAF(V600E) (Homo sapiens, UniProt P15056, V600E); assay: KINOMEscan: BRAF(V600E); type: binding; conditions: 1000 nM, read-out: Percent Control
BRAF(V600E), sequence (P15056 whole entry V600E): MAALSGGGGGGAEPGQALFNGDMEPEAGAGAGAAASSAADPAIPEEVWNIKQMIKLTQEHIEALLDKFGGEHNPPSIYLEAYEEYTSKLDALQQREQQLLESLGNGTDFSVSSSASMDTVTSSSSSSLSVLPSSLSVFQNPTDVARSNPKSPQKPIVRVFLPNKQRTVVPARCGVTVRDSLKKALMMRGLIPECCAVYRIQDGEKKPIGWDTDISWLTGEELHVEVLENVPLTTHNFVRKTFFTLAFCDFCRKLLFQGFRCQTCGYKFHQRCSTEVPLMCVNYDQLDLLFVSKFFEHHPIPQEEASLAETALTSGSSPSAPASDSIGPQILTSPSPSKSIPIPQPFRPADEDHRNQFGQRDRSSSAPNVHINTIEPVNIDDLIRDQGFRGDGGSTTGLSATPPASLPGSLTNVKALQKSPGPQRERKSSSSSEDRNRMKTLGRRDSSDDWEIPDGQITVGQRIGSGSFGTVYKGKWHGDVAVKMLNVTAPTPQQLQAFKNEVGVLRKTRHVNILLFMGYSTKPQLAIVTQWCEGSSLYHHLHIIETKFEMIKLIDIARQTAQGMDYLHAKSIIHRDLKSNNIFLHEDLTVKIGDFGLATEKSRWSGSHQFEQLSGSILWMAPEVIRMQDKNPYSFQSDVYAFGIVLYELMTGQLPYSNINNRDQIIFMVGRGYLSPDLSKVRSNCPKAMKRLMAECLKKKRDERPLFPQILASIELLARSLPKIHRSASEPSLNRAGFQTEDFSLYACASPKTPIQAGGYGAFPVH

CSNK1G3 = CSNK1G3 (Homo sapiens, UniProt Q9Y6M4); assay: KINOMEscan: CSNK1G3; type: binding; conditions: 1000 nM, read-out: Percent Control
AMPK-alpha2 = AMPK-alpha2 (Homo sapiens, UniProt P54646); assay: KINOMEscan: AMPK-alpha2; type: binding; conditions: 1000 nM, read-out: Percent Control
FLT3(D835H) = FLT3(D835H) (Homo sapiens, UniProt P36888, D835H); assay: KINOMEscan: FLT3(D835H); type: binding; conditions: 1000 nM, read-out: Percent Control
[3] = molecular target: RSK1(Kin.Dom.2-C-terminal) (Homo sapiens, UniProt Q15418); assay: KINOMEscan: RSK1(Kin.Dom.2-C-terminal); type: binding; conditions: 100 nM, read-out: Percent Control
CSNK1D = CSNK1D (Homo sapiens, UniProt P48730); assay: KINOMEscan: CSNK1D; type: binding; conditions: 1000 nM, read-out: Percent Control
CSNK1D, sequence (P48730 whole entry): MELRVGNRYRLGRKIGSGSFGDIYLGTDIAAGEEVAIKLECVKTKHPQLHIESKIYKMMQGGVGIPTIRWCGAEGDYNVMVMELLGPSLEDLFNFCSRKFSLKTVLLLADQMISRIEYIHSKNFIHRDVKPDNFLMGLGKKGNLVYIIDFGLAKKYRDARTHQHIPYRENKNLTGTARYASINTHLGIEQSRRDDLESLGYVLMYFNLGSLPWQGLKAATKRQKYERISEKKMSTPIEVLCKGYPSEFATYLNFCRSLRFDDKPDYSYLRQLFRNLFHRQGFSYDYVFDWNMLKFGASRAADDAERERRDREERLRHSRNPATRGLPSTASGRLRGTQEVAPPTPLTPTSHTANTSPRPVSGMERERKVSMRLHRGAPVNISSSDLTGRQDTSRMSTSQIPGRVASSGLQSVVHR

HG-3 = assay: MTS proliferation assay; type: cell-based
[4] = molecular target: T1, CDK9 in complex with Cyclin K (Homo sapiens, UniProt P50750); assay: NanoBRET target engagement assay (HEK293); type: cell-based
T1 construct: host or cells: HEK293

Glutamate, NMDA, Agonism = assay: Eurofins Diversity Panel; type: binding; conditions: rat, Conc. 10 μM
CSF1R-autoinhibited = CSF1R-autoinhibited (Homo sapiens, UniProt P07333); assay: KINOMEscan: CSF1R-autoinhibited; type: binding; conditions: 1000 nM, read-out: Percent Control
CSF1R-autoinhibited, sequence (P07333 539-972 limits assumed): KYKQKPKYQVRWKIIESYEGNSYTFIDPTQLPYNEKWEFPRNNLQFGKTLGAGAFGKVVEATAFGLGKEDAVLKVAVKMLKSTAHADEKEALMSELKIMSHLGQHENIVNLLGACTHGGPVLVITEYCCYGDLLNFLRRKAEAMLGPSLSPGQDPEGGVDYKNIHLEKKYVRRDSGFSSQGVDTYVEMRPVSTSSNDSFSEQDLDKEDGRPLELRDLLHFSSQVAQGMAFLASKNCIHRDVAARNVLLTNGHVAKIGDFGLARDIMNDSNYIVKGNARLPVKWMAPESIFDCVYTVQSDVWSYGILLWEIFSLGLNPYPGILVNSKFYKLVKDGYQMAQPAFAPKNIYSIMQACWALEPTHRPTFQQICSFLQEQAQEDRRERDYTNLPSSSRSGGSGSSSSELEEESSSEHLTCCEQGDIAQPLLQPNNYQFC

CDKL1 = CDKL1 (Homo sapiens, UniProt Q00532); assay: KINOMEscan: CDKL1; type: binding; conditions: 1000 nM, read-out: Percent Control
MLK3 = MLK3 (Homo sapiens, UniProt Q16584); assay: KINOMEscan: MLK3; type: binding; conditions: 1000 nM, read-out: Percent Control
TNK2 = TNK2 (Homo sapiens, UniProt Q07912); assay: KINOMEscan: TNK2; type: binding; conditions: 100 nM, read-out: Percent Control
DAPK2 = DAPK2 (Homo sapiens, UniProt Q9UIK4); assay: KINOMEscan: DAPK2; type: binding; conditions: 1000 nM, read-out: Percent Control
HPK1 = HPK1 (Homo sapiens, UniProt Q92918); assay: KINOMEscan: HPK1; type: binding; conditions: 1000 nM, read-out: Percent Control

DYRK1B, sequence (Q9Y463 whole entry): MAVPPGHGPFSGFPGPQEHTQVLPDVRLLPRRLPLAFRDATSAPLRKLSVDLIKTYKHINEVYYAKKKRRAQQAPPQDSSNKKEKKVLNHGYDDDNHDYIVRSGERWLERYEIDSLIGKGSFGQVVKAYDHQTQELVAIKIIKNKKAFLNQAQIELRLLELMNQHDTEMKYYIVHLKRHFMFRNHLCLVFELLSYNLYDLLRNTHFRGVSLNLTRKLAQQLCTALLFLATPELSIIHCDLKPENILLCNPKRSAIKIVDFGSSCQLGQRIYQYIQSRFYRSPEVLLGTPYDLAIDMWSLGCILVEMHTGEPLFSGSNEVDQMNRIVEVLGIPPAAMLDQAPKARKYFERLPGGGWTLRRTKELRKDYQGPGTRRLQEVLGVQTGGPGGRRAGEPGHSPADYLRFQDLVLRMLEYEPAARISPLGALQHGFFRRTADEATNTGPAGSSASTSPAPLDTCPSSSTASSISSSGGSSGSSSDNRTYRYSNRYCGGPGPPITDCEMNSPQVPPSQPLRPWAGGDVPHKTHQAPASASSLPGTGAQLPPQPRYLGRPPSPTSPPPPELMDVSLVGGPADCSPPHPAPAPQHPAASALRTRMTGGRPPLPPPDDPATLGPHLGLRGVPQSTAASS

Question: What does the source list for `COc1cc(F)ccc1-c1cc(Nc2cc(CS(C)(=N)=O)ccn2)ncc1F` (stereo not drawn) [VIP152]?
Answer: remaining binding at 1 µM (DYRK1B): 20%; remaining binding at 1 µM (KIT(D816V)): 88%; remaining binding at 1 µM (LIMK2): 91%; remaining binding at 1 µM (ANKK1): 83%; remaining binding at 1 µM (CLK1): 71%; remaining binding at 1 µM (MARK2): 81%; remaining binding at 1 µM (FGR): 66%; inhibition at 10 µM (Neuropeptide Y Y2): 3%; MCL1 protein levels ([1]; 0.1 µM, 8 h): decreased; Phosphorylation of serine 5 (marker of CDK7 activity) ([1]; 0.1 µM, 8 h): not diminished; glycogen synthase phosphorylation at serine 641 (marker of GSK3α/β activity) ([1]; 0.1 µM, 8 h): did not observe a decrease; phospho-serine 2 (pS2) of RNA Polymerase II ([1]; 0.1 µM, 8 h): decrease; MCL1 ([1]; 1 µM, across 24 h): decreased; c-MYC ([1]; 1 µM, across 24 h): decreased; pS2 ([1]; 1 µM, across 24 h): decreased; pS5 ([1]; 1 µM, across 24 h): minimal change; PARP cleavage (induction of apoptosis) ([1]; beginning at six hours): detect PARP cleavage; remaining binding at 0.1 µM (STK16): 100%; remaining binding at 1 µM (MAPKAPK2): 81%; remaining binding at 1 µM (DCAMKL3): 100%; remaining binding at 1 µM [2]: 94%; inhibition at 10 µM (Histamine H2): 23%; remaining binding at 1 µM (ERN1): 86%; remaining binding at 1 µM (BRAF(V600E)): 92%; remaining binding at 1 µM (CSNK1G3): 97%; remaining binding at 1 µM (AMPK-alpha2): 99%; remaining binding at 1 µM (FLT3(D835H)): 57%; remaining binding at 0.1 µM [3]: 100%; remaining binding at 1 µM (CSNK1D): 94%; IC50 (HG-3; Homo sapiens, 24, 48, and 72 h, read-out: proliferation IC50): 50 to 67 nM; IC50 (HG-3; Homo sapiens, two-hour drugging followed by washout, MTS after 72 h, read-out: 50% growth inhibition): 970 nM; potency versus the other inhibitors [4]: higher potency; % Inh. (Glutamate, NMDA, Agonism): 3%; remaining binding at 1 µM (CSF1R-autoinhibited): 73%; remaining binding at 1 µM (CDKL1): 63%; remaining binding at 1 µM (MLK3): 87%; remaining binding at 0.1 µM (TNK2): 100%; remaining binding at 1 µM (DAPK2): 89%; remaining binding at 1 µM (HPK1): 85%
